Consider 18 compounds from patent US12358948B2, “Neurotensinergic agonists and methods of using same preventing or treating pain” (priority 2019, dated 2025).

As usually defined, the IC50 is the point on the concentration scale where inhibition reaches its midpoint. Broadly, the pIC50 is −log10 of the IC50, conventionally taken in molar units.

pIC50: −log10 of the molar value. Where a SMILES comes first, the peptide text is derived from it. Bridges are numbered along the chain shown (N, C = ends). [ ]: non-standard residue; d: D form. Ala(cPr) = N[C@@H](CC1CC1)C(=O)O; dAllylGly = C=CC[C@@H](N)C(=O)O; 2Thi = N[C@@H](Cc1cccs1)C(=O)O; Cit = NC(=O)NCCC[C@H](N)C(=O)O; AllylGly = C=CC[C@H](N)C(=O)O; S5 = C=CCCC[C@](C)(N)C(=O)O; hLys = NCCCCC[C@H](N)C(=O)O; Orn = NCCC[C@H](N)C(=O)O; Dab = NCC[C@H](N)C(=O)O; Nva = CCC[C@H](N)C(=O)O; Dap = NC[C@H](N)C(=O)O

For one test, the target named is T1, hNTS2 receptor (Homo sapiens, UniProt O95665).
T1 construct: membranes prepared from them
T1 sequence (O95665 whole entry): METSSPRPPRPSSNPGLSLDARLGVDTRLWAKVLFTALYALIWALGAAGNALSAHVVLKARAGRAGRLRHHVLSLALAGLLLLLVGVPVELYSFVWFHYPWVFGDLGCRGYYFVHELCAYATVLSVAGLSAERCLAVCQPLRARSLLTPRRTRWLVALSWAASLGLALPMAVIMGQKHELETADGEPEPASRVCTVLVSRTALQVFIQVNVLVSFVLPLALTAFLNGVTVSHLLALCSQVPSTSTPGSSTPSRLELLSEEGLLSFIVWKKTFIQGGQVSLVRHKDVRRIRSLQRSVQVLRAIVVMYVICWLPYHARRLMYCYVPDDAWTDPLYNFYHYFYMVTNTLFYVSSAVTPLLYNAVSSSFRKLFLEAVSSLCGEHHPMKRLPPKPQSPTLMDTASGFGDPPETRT
Description: Competitive radioligand binding assay on the hNTS2 receptor. The settings on record: for IC50: displacement of 125I-[Tyr3]-NT, membranes of 1321N1 cells expressing hNTS2, read-out: IC50 NTS2 (converted); for Selectivity: ratio IC50 for NTS1 : IC50 for NTS2. As to the method:
(§1) CHO-K1 (Chinese Hamster Ovary) cells stably expressing hNTS1 and 1321N1 cells stably expressing hNTS2 (ES-690-C and ES-691-C from PerkinElmer, Montréal, Canada) were cultured respectively in Ham's F12 and in DMEM culture media. Culture media were supplemented with 10% FBS, 100 U/mL penicillin, 100 μg/mL streptomycin, 20 mM HEPES, and 0.4 mg/mL G418 at 37° C. in a humidified chamber at 5% CO2.
(§2) The cells expressing hNTS1 were frozen when they reached 80% confluency. They were scrapped off the dish with 10 mM Tris buffer, 1 mM EDTA, pH 7.5 and centrifuged at 15,000 g for 5 min at 4° C. The pellet was then re-suspended in 1 mL binding buffer. The cells expressing hNTS2 were also frozen when they reached 80% confluency. They were scraped off the dish with PBS, 0.5 mM EDTA, pH 7.5 and sonicated for 5 minutes (pulse 30 s/5 s off, amplitude 40%). They were ultracentrifuged at 100 000 g for 60 minutes at 4° C. The pellet was re-suspended in 1 mL freezing buffer (PBS, glycerol, 0.5 mM EDTA), sonicated for 1 minute (pulse 30 s/5 s off, amplitude 50%) and further diluted in binding buffer. Competitive radioligand binding experiments were performed by incubating 15 μg of cell membranes expressing the hNTS1 receptor with […] of ^125I-[Tyr^3]-NT (2200 Ci/mmol) or 50 μg of cell membranes expressing the hNTS2 receptor with […] of ^125I-[Tyr^3]-NT in binding buffer (50 mM Tris-HCl, pH 7.5, 0.2% BSA) in the presence of increasing concentrations of analogues ranging from 10^−11 to 10^−4 M for 60 min at 25° C. After incubation, the binding reaction mixture was transferred in PEI-coated 96-well filter plates (glass fiber filters GF/B, Millipore, Billerica, MA). Reaction was terminated by filtration, and plates were washed three times with 200 μL ice-cold binding buffer. Glass filters were then counted using a γ-counter (2470 Wizard2, PerkinElmer, Mississauga, Ontario, Canada). Non-specific binding was measured in the presence of 10^−5 M unlabeled NT (8-13) and represented less than 5% of total binding. IC50 values were determined from competition curves as the unlabeled ligand concentration inhibiting 50% of ^125I-[Tyr^3]-NT-specific binding.
(§3) Competitive radioligand binding data were plotted using the nonlinear regression One-site-Fit Log(IC50) and represented the mean±SEM of at least three independent experiments in triplicates.
Background: In a radioligand displacement assay an active substance lowers the binding of a labelled ligand.

The next test deals with T2, hNTS1 receptor (Homo sapiens, UniProt P30989).
T2 construct: membranes prepared from them
T2 sequence (P30989 whole entry): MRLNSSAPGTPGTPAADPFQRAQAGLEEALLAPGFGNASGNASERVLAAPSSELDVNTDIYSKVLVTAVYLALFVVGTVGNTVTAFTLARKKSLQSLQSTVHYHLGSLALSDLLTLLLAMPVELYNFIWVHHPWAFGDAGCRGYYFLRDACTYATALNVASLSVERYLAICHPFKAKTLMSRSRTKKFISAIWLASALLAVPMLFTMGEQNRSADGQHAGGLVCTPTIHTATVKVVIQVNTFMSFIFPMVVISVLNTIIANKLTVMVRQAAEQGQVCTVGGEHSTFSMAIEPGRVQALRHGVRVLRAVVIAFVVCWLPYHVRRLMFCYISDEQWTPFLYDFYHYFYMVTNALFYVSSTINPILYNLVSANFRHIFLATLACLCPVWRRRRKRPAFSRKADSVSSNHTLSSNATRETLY
Description: Competitive radioligand binding assay on the hNTS1 receptor. The settings on record: displacement of 125I-[Tyr3]-NT, membranes of CHO-K1 cells expressing hNTS1; read-out: IC50 NTS1. As to the method:
as §1, §2, §3

`CC(C)C[C@H](NC(=O)[C@H](Cc1ccc(O)cc1)NC(=O)[C@@H]1CC=CCCC[C@](C)(N)C(=O)N[C@@H](CCCCN)C(=O)N[C@@H](CCCCN)C(=O)N1)C(=O)O` [compound 89, c[G(alpha-Me-(4-Pentenyl))KKG(All)]YL] (H-[S5]KK[AllylGly]YL-OH; staple 1-4): at hNTS2 receptor, the 50% inhibitory concentration (IC50) was 0.0132 µM and the Selectivity was above 7553. The pIC50 at hNTS1 receptor was below 4.00.
For `CC(C)C[C@H](NC(=O)[C@H](Cc1ccc(O)cc1)NC(=O)[C@@H]1CC(=O)NCC[C@H](N)C(=O)N[C@@H](CCCCN)C(=O)N[C@@H](CCCCN)C(=O)N1)C(=O)O` [compound 95, c[DabKKD]YL] (H-[Dab]KKDYL-OH; lactam 1-4), at hNTS2 receptor, the IC50 was 8.81 µM and the Selectivity is above 11.4. For the same compound, the pIC50 on hNTS1 receptor was below 4.00.
In the case of `CC(C)C[C@H](NC(=O)[C@H](Cc1ccc(O)cc1)NC(=O)[C@@H]1CC=CC[C@H](N)C(=O)N[C@@H](CCCCN)C(=O)N[C@@H](CCCNC(N)=O)C(=O)N1)C(=O)O` [compound 146, c[G(All)KcitrullineG(All)]YL] (H-[AllylGly]K[Cit][AllylGly]YL-OH; staple 1-4), on hNTS2 receptor, the half-inhibitory concentration (IC50) is 0.698 µM and the Selectivity is given as 143. The negative-log IC50 (pIC50) on hNTS1 receptor was below 4.00.
Regarding `CC(C)C[C@H](NC(=O)[C@H](Cc1ccc(O)cc1)NC(=O)[C@H]1CC=CC[C@@H](N)C(=O)N[C@@H](CCCCN)C(=O)N[C@@H](CCCCN)C(=O)N1)C(=O)O` [compound 42, c[G*(All)KKG*(All)]YL] (H-[dAllylGly]KK[dAllylGly]YL-OH; staple 1-4), at hNTS2 receptor, the IC50 is 2.3 µM and the Selectivity is listed as above 42. The negative logarithm of the IC50 (pIC50) at hNTS1 receptor was below 4.00.
Taken in the same sequence, the figures for `CC(C)C[C@H](NC(=O)[C@H](Cc1ccc(O)cc1)NC(=O)[C@@H]1CC(=O)NCCCC[C@H](N)C(=O)N[C@@H](CCCCN)C(=O)N[C@@H](CCCCN)C(=O)N1)C(=O)O` [compound 97, c[KKKD]YL] (H-KKKDYL-OH; lactam 1-4) were 1.02 µM, above 98.4 and below 4.00.
Taken in the same sequence, the figures for `CC(C)C[C@H](NC(=O)[C@H](Cc1ccc(Br)cc1)NC(=O)C1(C)CCCC=CCCC(=O)N[C@@H](CCCCN)C(=O)N[C@@H](CCCCN)C(=O)N1)C(=O)O` (stereo partly drawn) [compound 136, c[PentenoylKKG(alpha-Me-(4-pentenyl))]F(4-bromo)L] were 0.0377 µM, 2653 and below 4.00.
On to `CC(C)C[C@H](NC(=O)[C@H](Cc1ccc(O)cc1)NC(=O)[C@@H]1CC=CC[C@H](N)C(=O)N[C@@H](CCCCN)C(=O)NCC(=O)N1)C(=O)O` [compound 59, c[G(All)KGG(All)]YL] (H-[AllylGly]KG[AllylGly]YL-OH; staple 1-4), for which, at hNTS2 receptor, the IC50 was 2.13 µM and the Selectivity is reported as above 47. In addition, at hNTS1 receptor, the pIC50 is below 4.00.
For `CC(C)C[C@H](NC(=O)[C@H](Cc1ccc(O)cc1)NC(=O)[C@@H]1CC=CC[C@H](N)C(=O)N[C@@H](CCCN)C(=O)N[C@@H](CCCCN)C(=O)N1)C(=O)O` [compound 79, c[G(All)OrnKG(All)]YL] (H-[AllylGly][Orn]K[AllylGly]YL-OH; staple 1-4), on hNTS2 receptor, the IC50 was 0.0775 µM and the Selectivity was above 1291. Moreover, the negative logarithm of the IC50 (pIC50) on hNTS1 receptor was below 4.00.
As to `CC(C)C[C@H](NC(=O)[C@H](Cc1ccc(O)cc1)NC(=O)[C@@H]1CC=CC[C@H](N)C(=O)N[C@@H](CCCCN)C(=O)N[C@H](CCCCN)C(=O)N1)C(=O)O` [compound 54, c[G(All)KK*G(All)]YL] (H-[AllylGly]K[dK][AllylGly]YL-OH; staple 1-4), on hNTS2 receptor, the IC50 is 0.321 µM and the Selectivity is reported as above 311.9. Also, at hNTS1 receptor, the negative-log IC50 (pIC50) is below 4.00.
The matching figures for `CC(C)C[C@H](NC(=O)[C@H](Cc1ccc(O)cc1)NC(=O)[C@@H]1CC=CC[C@H](N)C(=O)N[C@@H](CCCCCN)C(=O)N[C@@H](CCCCCN)C(=O)N1)C(=O)O` [compound 151, c[G(All)K(homo)K (homo)G(All)]YL] (H-[AllylGly][hLys][hLys][AllylGly]YL-OH; staple 1-4): 0.104 µM, 962 and below 4.00.
For the compound `CC(C)C[C@H](NC(=O)[C@H](Cc1cccs1)NC(=O)[C@@H]1CC=CC[C@H](N)C(=O)N[C@@H](CCCCN)C(=O)N[C@@H](CCCCN)C(=O)N1)C(=O)O` [compound 159, c[G(All)KKG(All)]A(2-thienyl)L] (H-[AllylGly]KK[AllylGly][2Thi]L-OH; staple 1-4), at hNTS2 receptor, the half-inhibitory concentration (IC50) is 0.09 µM and the Selectivity is 1112. Further, the pIC50 on hNTS1 receptor was below 4.00.
Turning to `CC(C)C[C@H](NC(=O)[C@H](Cc1ccc(O)cc1)NC(=O)[C@@H]1CC(=O)NCCC[C@H](N)C(=O)N[C@@H](CCCCN)C(=O)N[C@@H](CCCCN)C(=O)N1)C(=O)O` [compound 96, c[OrnKKD]YL] (H-[Orn]KKDYL-OH; lactam 1-4), on hNTS2 receptor, the half-maximal inhibitory concentration (IC50) was 1.93 µM and the Selectivity is above 51.8. Further, the pIC50 at hNTS1 receptor is below 4.00.
The matching figures for `NCCCC[C@@H]1NC(=O)[C@H](CCCCN)NC(=O)[C@@H](N)CC=CC[C@@H](C(=O)N[C@@H](Cc2ccc(O)cc2)C(=O)N[C@@H](CC2CC2)C(=O)O)NC1=O` [compound 65, c[G(All)KKG(All)]YA(cyclopropyl)] (H-[AllylGly]KK[AllylGly]Y[Ala(cPr)]-OH; staple 1-4): 0.312 µM, above 321 and below 4.00.
The matching figures for `CCC[C@@H]1NC(=O)[C@@H](N)CC=CC[C@@H](C(=O)N[C@@H](Cc2ccc(O)cc2)C(=O)N[C@@H](CC(C)C)C(=O)O)NC(=O)[C@H](CCCCN)NC1=O` [compound 86, c[G(All)NvaKG(All)]YL] (H-[AllylGly][Nva]K[AllylGly]YL-OH; staple 1-4): 0.743 µM, above 135 and below 4.00.
In the case of `CCC[C@H](NC(=O)[C@H](Cc1ccc(O)cc1)NC(=O)[C@@H]1CC=CC[C@H](N)C(=O)N[C@@H](CCCCN)C(=O)N[C@@H](CCCCN)C(=O)N1)C(=O)O` [compound 29, c[G(All)KKG(All)]YNva] (H-[AllylGly]KK[AllylGly]Y[Nva]-OH; staple 1-4), at hNTS2 receptor, the concentration for half-maximal inhibition (IC50) was 3.3 µM and the Selectivity is reported as above 30.3. For the same compound, on hNTS1 receptor, the negative-log IC50 (pIC50) was below 4.00.
As for `CC(C)C[C@H](NC(=O)[C@H](Cc1ccc(O)cc1)NC(=O)[C@@H]1CSSC[C@H](N)C(=O)N[C@@H](CCCCN)C(=O)N[C@@H](CCCCN)C(=O)N1)C(=O)O` [compound 152, c[CKKC]YL] (H-CKKCYL-OH; disulfide 1-4), on hNTS2 receptor, the IC50 is 1.4 µM and the Selectivity came out at 7. For the same compound, the negative-log IC50 (pIC50) at hNTS1 receptor was below 3.00.
On to `CC(C)C[C@H](NC(=O)[C@H](Cc1ccc(O)cc1)NC(=O)[C@@H]1CC=CC[C@H](N)C(=O)N[C@@H](CCCCN)C(=O)N[C@@H](CN)C(=O)N1)C(=O)O` [compound 53, c[G(All)KDapG(All)]YL] (H-[AllylGly]K[Dap][AllylGly]YL-OH; staple 1-4), for which, at hNTS2 receptor, the concentration for half-maximal inhibition (IC50) is 0.204 µM and the Selectivity is given as above 490.9. Moreover, the negative logarithm of the IC50 (pIC50) at hNTS1 receptor is below 4.00.
In the case of `CC(C)C[C@H](NC(=O)[C@H](Cc1ccc(O)cc1)NC(=O)[C@@H]1CCNC(=O)C[C@H](N)C(=O)N[C@@H](CCCCN)C(=O)N[C@@H](CCCCN)C(=O)N1)C(=O)O` [compound 105, c[DKKDab]YL] (H-DKK[Dab]YL-OH; lactam 1-4), at hNTS2 receptor, the half-maximal inhibitory concentration (IC50) is 1.45 µM and the Selectivity is above 67.0. Also, the pIC50 at hNTS1 receptor is below 4.00.
